Reference: patent US11684067B2, “Generation of peroxyformic acid through polyhydric alcohol formate” (priority 2014, dated 2023)
Values joined by “and” are separate entries in the source; they are usually repeats but may differ in a detail not shown here. Equal entries are not always repeated. Where two headings read alike, the source gives them in different places.

What was measured:
[1] = Laundry disinfection efficacy, EPA protocol on 100% cotton carriers (Table 38); type: cell-based; conditions: pH 7.7, 500 ppm hard water; for Log survivors (CFU/carrier) / Log reduction: 18 ppm, 40° C., 5 minute exposure; for Log survivors (CFU/carrier): cotton carriers; for Log reduction: vs water control
Description: The microbial efficacy of peroxyformic acid was also tested following the EPA protocol on 100% cotton carriers against a water control. The test conditions were pH 7.7, 500 ppm hard water, 40° C. and 5 minute exposure time. In comparison, the performance of peracetic acid was also tested under the same conditions.

[2] = tested on: Candida albicans ATCC 10231; test: Fungicidal/yeasticidal activity of ester PFA versus POAA (Example 22); type: cell-based; conditions: for Average CFU/mL / Log10 Growth / Log10 Reduction: 20°C, dirty
Description: Canidia and Aspergillus pathogens were used to evaluate the micro efficacy of ester PFA generated according to methods of the present invention in comparison to POAA.

[3] = tested on: Bacillus subitilisATCC 19659; test: Sporicidal activity of ester PFA versus POAA (Example 21); type: cell-based, Bacillus subtilis; conditions: for Average CFU/mL / Log10 Growth / Log10 Reduction: 20°C, dirty
Description: Bacillus pathogens were used to evaluate the micro efficacy of ester PFA generated according to methods of the present invention in comparison to POAA.

[4] = Stability of PFA in use solution in the presence of soils, iodometric titration; type: physicochemical; conditions: 500 ppm PFA in 500 ppm hard water with soil load, ambient; FIG. 22
Description: To 200 g of 500 ppm hard water containing individual soil load at the desired concentration, was added PFA stock solution to target PFA concentration of 500 ppm. The resulting solution was stored under ambient conditions, and the level of PFA was monitored by iodometric titration at the specific time point.

Various pathogens = type: cell-based
[5] = tested on: Nalidixic acid resistant E. coli O157:H7; test: Reduction of E. coli on raw beef brisket, dip treatment; type: cell-based; conditions: 10 minutes dip, ambient, 220 ppm POAA / 180 ppm PFA / 50 ppm LAS per formula (Table 15)
Description: Nalidixic acid resistant E. coli O157:H7 was used to evaluate the efficacy in treatment with performic acid composition on raw beef brisket according to the conditions shown in Table 14.
The generation of PFA from the perhydrolysis of glycerol formates, PFA formulations, POAA formations and controls were evaluated as shown in Table 15.

[6] = tested on: Bacillus subitilisATCC 19659; test: Sporicidal activity of ester PFA versus POAA (Example 23); type: cell-based, Bacillus subtilis; conditions: 20°C, dirty
Description: Additional Bacillus pathogens were used to evaluate the micro efficacy of ester PFA generated according to methods of the present invention in comparison to POAA.

[7] = tested on: P. aeruginosa ATCC 15442 biofilm; test: Biofilm disinfectant efficacy, CDC Biofilm Reactor, Single Tube Method (ASTM E2562-12, E2871-12); type: cell-based, Pseudomonas aeruginosa
Description: P. aeruginosa ATCC 15442 biofilm was grown on the surface of 24 polycarbonate coupons following ASTM method E2562-12: Standard Test Method for Quantification of Pseudomonas aeruginosa Biofilm Grown with High Shear and Continuous Flow using CDC Biofilm Reactor. After 48 hours of biofilm establishment, the coupons were removed from the reactor and placed into individual centrifuge tubes. Three coupons per test substance were tested for disinfectant efficacy using ASTM method E2871-12: Standard Test Method for Evaluating Disinfectant Efficacy against Pseudomonas aeruginosa Biofilm Grown in CDC Biofilm Reactor using Single Tube Method. Each coupon was exposed to 4 mL of chemistry for an exposure time of 3 hours. […] This was followed with a series of vortexing and sonicating steps to remove any biofilm from the coupon surface into the solution for plating and enumeration.
P. aeruginosa ATCC 15442 biofilm was grown on the surface of 24 polycarbonate coupons following ASTM method E2562-12: Standard Test Method for Quantification of Pseudomonas aeruginosa Biofilm Grown with High Shear and Continuous Flow using CDC Biofilm Reactor. After 48 hours of biofilm establishment, the coupons were removed from the reactor and placed into individual centrifuge tubes. […]

[8] = Klebsiella pneumoniae ATCC 4352
[9] = Staphylococcus aureus ATCC 6538
[10] = 200 ppm PFA pH 6.15 / 245 ppm POAA pH 6.56, 5 minutes
[11] = 200 ppm PFA pH 6.15 / 245 ppm POAA pH 6.56, 10 minutes
[12] = 200 ppm PFA pH 6.15 / 245 ppm POAA pH 6.56, 15 minutes
[13] = 300 ppm PFA pH 6.21 / 368 ppm POAA pH 6.63, 5 minutes
[14] = 300 ppm PFA pH 6.21 / 368 ppm POAA pH 6.63, 10 minutes
[15] = 300 ppm PFA pH 6.84 / 368 ppm POAA pH 6.73 (molar equivalent), 5 minutes
[16] = 300 ppm PFA pH 6.84 / 368 ppm POAA pH 6.73 (molar equivalent), 10 minutes
[17] = 400 ppm PFA pH 7.19 / 490 ppm POAA pH 6.78 (molar equivalent), 5 minutes
[18] = 400 ppm PFA pH 7.19 / 490 ppm POAA pH 6.78 (molar equivalent), 10 minutes
[19] = 300 ppm PFA pH 6.73 / 368 ppm POAA pH 6.88, 5 minutes
[20] = 300 ppm PFA pH 6.73 / 368 ppm POAA pH 6.88, 10 minutes
[21] = 400 ppm PFA pH 6.95 / 490 ppm POAA pH 6.65, 5 minutes
[22] = 400 ppm PFA pH 6.95 / 490 ppm POAA pH 6.65, 10 minutes

## O=COO [PFA, peroxyformic acid]
[1]; [8]
  Log survivors (CFU/carrier): <1.00 log10 CFU/carrier
  Log reduction: >5.12
[1]; [9]
  Log survivors (CFU/carrier): 1.63 log10 CFU/carrier
  Log reduction: 5.22
[1]; 40°C, 5 minute, less than half of the dose of peracetic acid
  kill compared with peracetic acid: significant better kill than peracetic acid
[2]; 5, 10 and 15 minutes, lower actives, FIG. 18
  reduction in C. albicans compared with POAA: equivalent reduction
[2]; [10]
  Average CFU/mL: <140 CFU/mL
  Log10 Growth: <2.15 Log10
  Log10 Reduction: >4.14 Log10
[2]; [11]
  Average CFU/mL: <140 CFU/mL
  Log10 Growth: <2.15 Log10
  Log10 Reduction: >4.14 Log10
[2]; [12]
  Average CFU/mL: <140 CFU/mL
  Log10 Growth: <2.15 Log10
  Log10 Reduction: >4.14 Log10
[2]; [13]
  Average CFU/mL: <140 CFU/mL
  Log10 Growth: <2.15 Log10
  Log10 Reduction: >4.14 Log10
[2]; [14]
  Average CFU/mL: <140 CFU/mL
  Log10 Growth: <2.15 Log10
  Log10 Reduction: >4.14 Log10
[3]; 5 and 10 minutes, lower concentrations than POAA, FIG. 17
  reduction in B. subtillis spores compared with POAA: increased reduction
[3]; [15]
  Average CFU/mL: 3.25E+03 CFU/mL
  Log10 Growth: 3.51 Log10
  Log10 Reduction: 2.28 Log10
[3]; [16]
  Average CFU/mL: 4.50E+01 CFU/mL
  Log10 Growth: 1.65 Log10
  Log10 Reduction: 4.14 Log10
[3]; [17]
  Average CFU/mL: 3.45E+03 CFU/mL
  Log10 Growth: 3.54 Log10
  Log10 Reduction: 2.26 Log10
[3]; [18]
  Average CFU/mL: 1.30E+03 CFU/mL
  Log10 Growth: 3.11 Log10
  Log10 Reduction: 2.68 Log10
[4]
  impact of soils on the stability of PFA: no impact
Various pathogens; EN 13624, 450 ppm PFA pH 6-7, Aspergillus brasiliensis ATCC 1604, passing requirement 4 log reduction
  Result: PASS
Various pathogens; EN 13624, 450 ppm PFA pH 6-7, Canidia albicans ATCC 10231, passing requirement 4 log reduction
  Result: PASS
Various pathogens; EN 13704, 450 ppm PFA pH 6-7, Bacillus subtilis ATCC 6633, passing requirement 3 log reduction
  Result: PASS
Various pathogens; EN 13727, 450 ppm PFA pH 6-7, Enterococcus hirae ATCC 10541, passing requirement 5 log reduction
  Result: PASS
Various pathogens; EN 13727, 450 ppm PFA pH 6-7, P. aeruginosa ATCC 15442, passing requirement 5 log reduction
  Result: PASS
Various pathogens; EN 13727, 450 ppm PFA pH 6-7, Staph Aureus ATCC 6538, passing requirement 5 log reduction
  Result: PASS
Various pathogens; pH 6
  Result: PASS
[5]
  Average Log CFU/cm2: 3.22 Log CFU/cm2
  Log reduction: 0.83 Log
[5]; single samples
  CFU/cm2: 1.84E+03 CFU/cm2 and 1.42E+03 CFU/cm2 and 1.72E+03 CFU/cm2
  CFU/ml: 9.20E+02 CFU/ml and 7.10E+02 CFU/ml and 8.60E+02 CFU/ml
  Log CFU/cm2: 3.26 Log CFU/cm2 and 3.15 Log CFU/cm2 and 3.24 Log CFU/cm2
[6]; [19]
  Average CFU/mL: >3.0E+05 CFU/mL
  Log10 Growth: >5.48 Log10
  Log10 Reduction: <2.26 Log10
[6]; [20]
  Average CFU/mL: 1.28E+05 CFU/mL
  Log10 Growth: 5.11 Log10
  Log10 Reduction: 2.63 Log10
[6]; [21]
  Average CFU/mL: >3.0E+05 CFU/mL
  Log10 Growth: >5.48 Log10
  Log10 Reduction: <2.26 Log10
[6]; [22]
  Average CFU/mL: 7.50E+04 CFU/mL
  Log10 Growth: 4.88 Log10
  Log10 Reduction: 2.86 Log10
[7]; 50 ppm PFA 15 minutes to 3 hours vs 200 ppm POAA 3 hours, FIG. 12
  anti-biofilm efficacy compared with POAA: greater anti-biofilm efficacy
[7]; 3 hours exposure, concentration lower than POAA, FIG. 11
  anti-biofilm efficacy compared with POAA: significantly greater anti-biofilm efficacy
